Measurements from the supplement of paper PMC10307832.

Tests used:
Test in all cases: relative viability (nuclei count vs DMSO), 5 days (fraction); higher = more cells survive
GSK126 + Alpelisib = compound: CC[C@H](C)N1C=C(C2=C(C=C(C=C21)C3=CN=C(C=C3)N4CCNCC4)C(=O)NCC5=C(C=C(NC5=O)C)C)C [GSK126] + Cc1nc(NC(=O)N2CCC[C@H]2C(N)=O)sc1-c1ccnc(C(C)(C)C(F)(F)F)c1 [Alpelisib] (partner 2 µM)
How it was run: (§1)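 Lung cancer cell lines in 1536-well plates were dosed by pin tool the day after seeding, either with one drug alone or with a fixed anchor-drug dose plus five library-drug doses (not always all listed) in √10 steps. After 5 days, cells were fixed and their nuclei stained in one step (final 0.05% Triton X-100, 1% formaldehyde, 1 ug/ml Hoechst), then counted on 4× images. Relative viability is the nuclei count in treated wells divided by that in vehicle wells. Values are medians of duplicate plates.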

GSK126 + Decitabine = compound: CC[C@H](C)N1C=C(C2=C(C=C(C=C21)C3=CN=C(C=C3)N4CCNCC4)C(=O)NCC5=C(C=C(NC5=O)C)C)C [GSK126] + Nc1ncn([C@H]2C[C@H](O)[C@@H](CO)O2)c(=O)n1 [Decitabine] (partner 2 µM)
How it was run: as §1

MLN4924 + Vorinostat = compound: NS(=O)(=O)OC[C@@H]1C[C@@H](n2ccc3c(N[C@H]4CCc5ccccc54)ncnc32)C[C@@H]1O [MLN4924] + O=C(CCCCCCC(=O)Nc1ccccc1)NO [Vorinostat] (partner 1 µM)
How it was run: as §1

MLN4924 + Palbociclib = compound: NS(=O)(=O)OC[C@@H]1C[C@@H](n2ccc3c(N[C@H]4CCc5ccccc54)ncnc32)C[C@@H]1O [MLN4924] + CC(=O)c1c(C)c2cnc(Nc3ccc(N4CCNCC4)cn3)nc2n(C2CCCC2)c1=O [Palbociclib] (partner 0.5 µM)
How it was run: as §1

NCI-H2170
relative viability (GSK126 + Alpelisib; first compound 0.08 µM): 0.932
relative viability (GSK126 + Alpelisib; first compound 0.253 µM): 0.852
relative viability (GSK126 + Alpelisib; first compound 0.8 µM): 0.839
relative viability (GSK126 + Alpelisib; first compound 2.53 µM): 0.795
relative viability (GSK126 + Alpelisib; first compound 8 µM): 0.745
relative viability (GSK126 + Decitabine; first compound 0.08 µM): 0.517
relative viability (GSK126 + Decitabine; first compound 0.253 µM): 0.467
relative viability (GSK126 + Decitabine; first compound 0.8 µM): 0.44
relative viability (GSK126 + Decitabine; first compound 2.53 µM): 0.467
relative viability (GSK126 + Decitabine; first compound 8 µM): 0.444
relative viability (MLN4924 + Vorinostat; first compound 0.04 µM): 0.774
relative viability (MLN4924 + Vorinostat; first compound 0.1265 µM): 0.364
relative viability (MLN4924 + Vorinostat; first compound 0.4 µM): 0.326
relative viability (MLN4924 + Vorinostat; first compound 1.265 µM): 0.135
relative viability (MLN4924 + Vorinostat; first compound 4 µM): 0.13
relative viability (MLN4924 + Palbociclib; first compound 0.04 µM): 0.392
relative viability (MLN4924 + Palbociclib; first compound 0.1265 µM): 0.242
relative viability (MLN4924 + Palbociclib; first compound 0.4 µM): 0.253
relative viability (MLN4924 + Palbociclib; first compound 1.265 µM): 0.109
relative viability (MLN4924 + Palbociclib; first compound 4 µM): 0.124

LC-2-ad
relative viability (GSK126 + Alpelisib; first compound 0.08 µM): 0.927
relative viability (GSK126 + Alpelisib; first compound 0.253 µM): 0.967
relative viability (GSK126 + Alpelisib; first compound 0.8 µM): 0.773
relative viability (GSK126 + Alpelisib; first compound 2.53 µM): 0.793
relative viability (GSK126 + Alpelisib; first compound 8 µM): 0.9
relative viability (GSK126 + Decitabine; first compound 0.08 µM): 0.779
relative viability (GSK126 + Decitabine; first compound 0.253 µM): 0.866
relative viability (GSK126 + Decitabine; first compound 0.8 µM): 0.717
relative viability (GSK126 + Decitabine; first compound 2.53 µM): 0.876
relative viability (GSK126 + Decitabine; first compound 8 µM): 0.78
relative viability (MLN4924 + Vorinostat; first compound 0.04 µM): 0.612
relative viability (MLN4924 + Vorinostat; first compound 0.1265 µM): 0.63
relative viability (MLN4924 + Vorinostat; first compound 0.4 µM): 0.508
relative viability (MLN4924 + Vorinostat; first compound 1.265 µM): 0.214
relative viability (MLN4924 + Vorinostat; first compound 4 µM): 0.202
relative viability (MLN4924 + Palbociclib; first compound 0.04 µM): 0.443
relative viability (MLN4924 + Palbociclib; first compound 0.1265 µM): 0.427
relative viability (MLN4924 + Palbociclib; first compound 0.4 µM): 0.432
relative viability (MLN4924 + Palbociclib; first compound 1.265 µM): 0.233
relative viability (MLN4924 + Palbociclib; first compound 4 µM): 0.196

NCI-H322M
relative viability (GSK126 + Alpelisib; first compound 0.08 µM): 0.819
relative viability (GSK126 + Alpelisib; first compound 0.253 µM): 0.836
relative viability (GSK126 + Alpelisib; first compound 0.8 µM): 0.817
relative viability (GSK126 + Alpelisib; first compound 2.53 µM): 0.78
relative viability (GSK126 + Alpelisib; first compound 8 µM): 0.737
relative viability (GSK126 + Decitabine; first compound 0.08 µM): 0.656
relative viability (GSK126 + Decitabine; first compound 0.253 µM): 0.676
relative viability (GSK126 + Decitabine; first compound 0.8 µM): 0.758
relative viability (GSK126 + Decitabine; first compound 2.53 µM): 0.733
relative viability (GSK126 + Decitabine; first compound 8 µM): 0.754
relative viability (MLN4924 + Vorinostat; first compound 0.04 µM): 1.27
relative viability (MLN4924 + Vorinostat; first compound 0.1265 µM): 1.47
relative viability (MLN4924 + Vorinostat; first compound 0.4 µM): 0.863
relative viability (MLN4924 + Vorinostat; first compound 1.265 µM): 0.38
relative viability (MLN4924 + Vorinostat; first compound 4 µM): 0.475
relative viability (MLN4924 + Palbociclib; first compound 0.04 µM): 0.56
relative viability (MLN4924 + Palbociclib; first compound 0.1265 µM): 0.656
relative viability (MLN4924 + Palbociclib; first compound 0.4 µM): 0.504
relative viability (MLN4924 + Palbociclib; first compound 1.265 µM): 0.389
relative viability (MLN4924 + Palbociclib; first compound 4 µM): 0.395

LCLC-97TM1
relative viability (GSK126 + Alpelisib; first compound 0.08 µM): 0.254
relative viability (GSK126 + Alpelisib; first compound 0.8 µM): 0.22
relative viability (GSK126 + Alpelisib; first compound 2.53 µM): 0.374
relative viability (GSK126 + Alpelisib; first compound 8 µM): 0.217
relative viability (GSK126 + Decitabine; first compound 0.08 µM): 0.237
relative viability (GSK126 + Decitabine; first compound 0.253 µM): 0.257
relative viability (GSK126 + Decitabine; first compound 0.8 µM): 0.218
relative viability (GSK126 + Decitabine; first compound 2.53 µM): 0.24
relative viability (GSK126 + Decitabine; first compound 8 µM): 0.253
relative viability (MLN4924 + Vorinostat; first compound 0.04 µM): 0.742
relative viability (MLN4924 + Vorinostat; first compound 0.1265 µM): 0.503
relative viability (MLN4924 + Vorinostat; first compound 0.4 µM): 0.0752
relative viability (MLN4924 + Vorinostat; first compound 1.265 µM): 0.0454
relative viability (MLN4924 + Vorinostat; first compound 4 µM): 0.0589
relative viability (MLN4924 + Palbociclib; first compound 0.04 µM): 0.185
relative viability (MLN4924 + Palbociclib; first compound 0.1265 µM): 0.114
relative viability (MLN4924 + Palbociclib; first compound 0.4 µM): 0.0981
relative viability (MLN4924 + Palbociclib; first compound 1.265 µM): 0.0625
relative viability (MLN4924 + Palbociclib; first compound 4 µM): 0.0723

NCI-H1944
relative viability (GSK126 + Alpelisib; first compound 0.08 µM): 0.92
relative viability (GSK126 + Alpelisib; first compound 0.253 µM): 0.858
relative viability (GSK126 + Alpelisib; first compound 0.8 µM): 0.839
relative viability (GSK126 + Alpelisib; first compound 2.53 µM): 0.843
relative viability (GSK126 + Alpelisib; first compound 8 µM): 0.947
relative viability (GSK126 + Decitabine; first compound 0.08 µM): 0.526
relative viability (GSK126 + Decitabine; first compound 0.253 µM): 0.413
relative viability (GSK126 + Decitabine; first compound 0.8 µM): 0.419
relative viability (GSK126 + Decitabine; first compound 2.53 µM): 0.433
relative viability (GSK126 + Decitabine; first compound 8 µM): 0.411
relative viability (MLN4924 + Vorinostat; first compound 0.04 µM): 0.543
relative viability (MLN4924 + Vorinostat; first compound 0.1265 µM): 0.539
relative viability (MLN4924 + Vorinostat; first compound 0.4 µM): 0.613
relative viability (MLN4924 + Vorinostat; first compound 1.265 µM): 0.203
relative viability (MLN4924 + Vorinostat; first compound 4 µM): 0.158
relative viability (MLN4924 + Palbociclib; first compound 0.04 µM): 0.374
relative viability (MLN4924 + Palbociclib; first compound 0.1265 µM): 0.371
relative viability (MLN4924 + Palbociclib; first compound 0.4 µM): 0.366
relative viability (MLN4924 + Palbociclib; first compound 1.265 µM): 0.197
relative viability (MLN4924 + Palbociclib; first compound 4 µM): 0.178

NCI-H1755
relative viability (GSK126 + Alpelisib; first compound 0.08 µM): 0.927
relative viability (GSK126 + Alpelisib; first compound 0.253 µM): 0.974
relative viability (GSK126 + Alpelisib; first compound 0.8 µM): 0.951
relative viability (GSK126 + Alpelisib; first compound 2.53 µM): 0.866
relative viability (GSK126 + Alpelisib; first compound 8 µM): 0.883
relative viability (GSK126 + Decitabine; first compound 0.08 µM): 0.696
relative viability (GSK126 + Decitabine; first compound 0.253 µM): 0.68
relative viability (GSK126 + Decitabine; first compound 0.8 µM): 0.684
relative viability (GSK126 + Decitabine; first compound 2.53 µM): 0.662
relative viability (GSK126 + Decitabine; first compound 8 µM): 0.714
relative viability (MLN4924 + Vorinostat; first compound 0.04 µM): 0.711
relative viability (MLN4924 + Vorinostat; first compound 0.1265 µM): 0.494
relative viability (MLN4924 + Vorinostat; first compound 0.4 µM): 0.466
relative viability (MLN4924 + Vorinostat; first compound 1.265 µM): 0.338
relative viability (MLN4924 + Vorinostat; first compound 4 µM): 0.261
relative viability (MLN4924 + Palbociclib; first compound 0.04 µM): 0.4
relative viability (MLN4924 + Palbociclib; first compound 0.1265 µM): 0.442
relative viability (MLN4924 + Palbociclib; first compound 0.4 µM): 0.314
relative viability (MLN4924 + Palbociclib; first compound 1.265 µM): 0.209
relative viability (MLN4924 + Palbociclib; first compound 4 µM): 0.257

H3255
relative viability (GSK126 + Alpelisib; first compound 0.08 µM): 0.716
relative viability (GSK126 + Alpelisib; first compound 0.253 µM): 0.679
relative viability (GSK126 + Alpelisib; first compound 0.8 µM): 0.847
relative viability (GSK126 + Alpelisib; first compound 2.53 µM): 0.643
relative viability (GSK126 + Alpelisib; first compound 8 µM): 0.738
relative viability (GSK126 + Decitabine; first compound 0.08 µM): 0.479
relative viability (GSK126 + Decitabine; first compound 0.253 µM): 0.628
relative viability (GSK126 + Decitabine; first compound 0.8 µM): 0.665
relative viability (GSK126 + Decitabine; first compound 2.53 µM): 0.502
relative viability (GSK126 + Decitabine; first compound 8 µM): 0.684
relative viability (MLN4924 + Vorinostat; first compound 0.04 µM): 0.668
relative viability (MLN4924 + Vorinostat; first compound 0.1265 µM): 0.642
relative viability (MLN4924 + Vorinostat; first compound 0.4 µM): 0.334
relative viability (MLN4924 + Vorinostat; first compound 1.265 µM): 0.239
relative viability (MLN4924 + Vorinostat; first compound 4 µM): 0.304
relative viability (MLN4924 + Palbociclib; first compound 0.04 µM): 0.299
relative viability (MLN4924 + Palbociclib; first compound 0.1265 µM): 0.283
relative viability (MLN4924 + Palbociclib; first compound 0.4 µM): 0.259
relative viability (MLN4924 + Palbociclib; first compound 1.265 µM): 0.308
relative viability (MLN4924 + Palbociclib; first compound 4 µM): 0.274

NCI-H23
relative viability (GSK126 + Alpelisib; first compound 0.08 µM): 0.74
relative viability (GSK126 + Alpelisib; first compound 0.253 µM): 0.628
relative viability (GSK126 + Alpelisib; first compound 0.8 µM): 0.565
relative viability (GSK126 + Alpelisib; first compound 2.53 µM): 0.779
relative viability (GSK126 + Alpelisib; first compound 8 µM): 0.76
relative viability (GSK126 + Decitabine; first compound 0.08 µM): 0.314
relative viability (GSK126 + Decitabine; first compound 0.253 µM): 0.337
relative viability (GSK126 + Decitabine; first compound 0.8 µM): 0.3
relative viability (GSK126 + Decitabine; first compound 2.53 µM): 0.268
relative viability (GSK126 + Decitabine; first compound 8 µM): 0.334
relative viability (MLN4924 + Vorinostat; first compound 0.04 µM): 0.521
relative viability (MLN4924 + Vorinostat; first compound 0.1265 µM): 0.441
relative viability (MLN4924 + Vorinostat; first compound 0.4 µM): 0.197
relative viability (MLN4924 + Vorinostat; first compound 1.265 µM): 0.134
relative viability (MLN4924 + Vorinostat; first compound 4 µM): 0.142
relative viability (MLN4924 + Palbociclib; first compound 0.04 µM): 0.478
relative viability (MLN4924 + Palbociclib; first compound 0.1265 µM): 0.441
relative viability (MLN4924 + Palbociclib; first compound 0.4 µM): 0.26
relative viability (MLN4924 + Palbociclib; first compound 1.265 µM): 0.175
relative viability (MLN4924 + Palbociclib; first compound 4 µM): 0.2
